Molecular target: T1, Bcl-2 protein (Recombinant Human Bcl-2 Protein) (Homo sapiens, UniProt P10415)
T1 construct: purchased Novus Biologicals NBP2-34889
Assay: AS-MS evaluation of binding of the Example 4 mixture library (1200 compounds/well) to Bcl-2, ASMS ratio (%)
Conditions: for ASMS ratio (%) n = 1: replicate n = 1; for ASMS ratio (%) n = 2: replicate n = 2
Experimental: DMSO solutions (prepared into approximately 0.58 mM based on calculation from the average molecular weight of each mixture) of 12 types of mixtures that could each contain 100 compounds, i.e., mixAI-B4J-01, mixAI-B1M-01, mixAI-B1K-01, mixAI-BIO-01, mixAI-B1A-01, mixAI-B3A-01, mixAI-B21-01, mixAI-B2L-01, mixAI-B2N-01, mixAI-B2A-01, mixAI-B2Q-01, and mixAI-B2R-01, shown in Table AI-03-B4J-01, Table AI-03-B1M-01, Table AI-03-B1K-01, Table AI-03-B10-01, Table AI-03-B1A-01, Table AI-03-B3A-01, Table AI-03-B21-01, Table AI-03-B2L-01, Table AI-03-B2N-01, Table AI-03-B2A-01, Table AI-03-B2Q-01, and Table AI-03-B2R-01 described in Example 4, were respectively dispensed to a total of 12 wells of MICROPLATE, 96-well, PP, V-BOTTOM (Greiner Bio-One International GmbH, 651201). 70 nL each from the 12 wells was collected into any one well using LABCYTE ECHO® 555 acoustic dispensing system (Beckman Coulter, Inc.) to prepare a sample solution in a mixed state of 1200 compounds (the presence of 1152 compounds was already identified when the mixtures were prepared in Example 4). Further, Bcl-2 protein (Novus Biologicals, NBP2-34889, Recombinant Human Bcl-2 Protein, Lot E60145051) (19.2 μL) prepared at 20.9 μM in advance using a Tris-HCl buffer (25 mM Tris-HCl, pH 7.4, 150 mM NaCl, 0.025% Tween-20, and 1 mM DTT) was added to the well containing the dispensed 1200 compounds (the presence of 1152 compounds was already identified when the mixtures were prepared in Example 4) (final compound concentration: 20 nM, final Bcl-2 concentration: 20 μM), and the plate was incubated at 23° C. for 1 hour in the dark. Subsequently, 200 μL of an assay buffer (25 mM Tris-HCl, pH 7.4, 150 mM NaCl, 0.025% Tween-20, and 1 mM DTT) was centrifuged three times at 2000×G at 4° C. for 2 minutes using 96-well MacroSpin column, P-2 Material (Harvard Bioscience, Inc., 74-5655) that had been allowed to swell to condition the 96-well MacroSpin column. Subsequently, 20 μL of the sample thus incubated was added to the 96-well MacroSpin column, P-2 Material after the completion of conditioning, and SEC treatment was performed by centrifugation at 2000×G for 2 minutes. 32 μL of a 1:1 mixed solution of acetonitrile and methanol (LC/MS grade, FUJIFILM Wako Pure Chemical Corp.) was added to a flow-through liquid from SEC, and the mixture was centrifuged at 1800×G at 4° C. for 5 minutes. The supernatant was used as analysis sample ASMS (A). By a similar operation, a sample prepared at 1200 compounds/well and supplemented with only a Tris-HCl buffer containing no Bcl-2 protein was incubated under the same conditions as above, and the same organic solvent as above was added thereto without 96-well MacroSpin column treatment. A supernatant obtained by a centrifugation operation was used as STD (B). Next, by a similar operation, a sample prepared at 1200 compounds/well and supplemented with only a Tris-HCl buffer containing no Bcl-2 protein was incubated under the same conditions as above and treated with 96-well MacroSpin column in the same manner as above, and the same organic solvent as above was added thereto. A supernatant obtained by a centrifugation operation was used as BK (C). These samples were measured by reverse-phase LC/MS.
Then, the samples A, B and C were analyzed for the 1200 compounds using TraceFinder 5.1 (Thermo Fisher Scientific Inc.) and CHANCE Software (in-house), and an ASMS ratio (%) was calculated according to the following expression.
Although m/z of the MS peaks was confirmed down to four decimal places, 0 at the decimal level may be omitted in the description in Table AJ-01. For example, “587.0000” is also referred to as “587”, “587.1000” is also referred to as “587.1”, “587.1200” is also referred to as “587.12”, and “587.1230” is also referred to as “587.123”.

[1] = AS-MS, mixture of 1200 compounds/well, Bcl-2 protein
[2] = mixture library, value belongs to the MS peak assigned to the compound

T1 sequence (P10415 whole entry): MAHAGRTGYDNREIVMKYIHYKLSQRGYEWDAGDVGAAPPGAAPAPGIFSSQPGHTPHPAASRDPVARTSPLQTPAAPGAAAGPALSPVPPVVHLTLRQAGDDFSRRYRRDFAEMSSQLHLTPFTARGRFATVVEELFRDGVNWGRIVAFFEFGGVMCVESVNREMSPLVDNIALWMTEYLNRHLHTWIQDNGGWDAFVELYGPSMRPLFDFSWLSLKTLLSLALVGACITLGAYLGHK

With `CCCNC(=O)c1ccc(N2CCN(C(=O)c3ccc(-c4cncc(OCC)c4)c(F)c3)CC2)cc1` [Compound B1M028-01] the “ASMS ratio (%) n = 1” value [1] was 0.0% and the “ASMS ratio (%) n = 2” value [1] was 0.0%.

For `CCCNC(=O)c1ccc(N2CCN(Cc3ccc(-c4cccc(OCC)c4)c4ccccc34)CC2)cc1` [Compound B1M065-01], the “ASMS ratio (%) n = 1” value [1] was 0.2% and the “ASMS ratio (%) n = 2” value [1] was −6.4%.

With `CCCNC(=O)c1ccc(N2CCN(Cc3cc(-c4cccc(OCC)c4)cs3)CC2)cc1` [Compound B1M067-01] the “ASMS ratio (%) n = 1” value [1] was −1.6% and the “ASMS ratio (%) n = 2” value [1] was −87.4%.

In the case of `CCCNC(=O)c1ccc(N2CCN(Cc3cc(-c4cncc(OCC)c4)cs3)CC2)cc1` [Compound B1M068-01], the “ASMS ratio (%) n = 1” value [1] is reported as 1.1% and the “ASMS ratio (%) n = 2” value [1] is reported as 0.0%.

`CCCNC(=O)c1ccc(N2CCN(Cc3ccc(-c4cccc(OCC)c4)c(C)c3)CC2)nn1` [Compound B1M073-01] was tested, and the “ASMS ratio (%) n = 1” value [1] was 0.4% and the “ASMS ratio (%) n = 2” value [1] was −0.5%.

With `CCCNC(=O)c1ccc(N2CCN(Cc3ccc(-c4cncc(OCC)c4)c(C)c3)CC2)nn1` [Compound B1M074-01] the “ASMS ratio (%) n = 1” value [1] was −1.6% and the “ASMS ratio (%) n = 2” value [1] was 0.9%.

With `CCCNC(=O)c1ccc(N2CCN(Cc3ccc(-c4cccc(OCC)c4)c(F)c3)CC2)nn1` [Compound B1M077-01] the “ASMS ratio (%) n = 1” value [1] was −0.7% and the “ASMS ratio (%) n = 2” value [1] was 3.1%.

In the case of `CCCNC(=O)c1ccc(N2CCN(Cc3ccc(-c4cncc(OCC)c4)c(F)c3)CC2)nn1` [Compound B1M078-01], the “ASMS ratio (%) n = 1” value [1] is reported as 0.0% and the “ASMS ratio (%) n = 2” value [1] is reported as 0.0%.

With `CCCNC(=O)c1ccc(N2CCN(Cc3cc(-c4cccc(OCC)c4)cc(C(F)(F)F)c3)CC2)nn1` [Compound B1M087-01] the “ASMS ratio (%) n = 1” value [1] was 3.8% and the “ASMS ratio (%) n = 2” value [1] was 3.2%.

`CCCNC(=O)c1ccc(N2CCN(Cc3cc(-c4cncc(OCC)c4)cc(C(F)(F)F)c3)CC2)nn1` [Compound B1M088-01] was tested, and the “ASMS ratio (%) n = 1” value [1] was 0.0% and the “ASMS ratio (%) n = 2” value [1] was 0.0%.

For `CCCNC(=O)c1ccc(N2CCN(Cc3cc(-c4cccc(OCC)c4)cs3)CC2)nn1` [Compound B1M093-01], the “ASMS ratio (%) n = 1” value [1] was 0.0% and the “ASMS ratio (%) n = 2” value [1] was 0.0%.

For `CCCNC(=O)c1ccc(N2CCN(Cc3cc(-c4cncc(OCC)c4)cs3)CC2)nn1` [Compound B1M094-01], the “ASMS ratio (%) n = 1” value [1] was −1.5% and the “ASMS ratio (%) n = 2” value [1] was −2.1%.

For `CCCNC(=O)c1ccc(N2CCN(C(C)c3ccc(-c4cccc(OCC)c4)cc3)CC2)cc1` (stereo not drawn) [Compound B1M097-01], the “ASMS ratio (%) n = 1” value [1] was 1.1% and the “ASMS ratio (%) n = 2” value [1] was 0.3%.

In the case of `CCCNC(=O)c1ccc(N2CCN(C(C)c3ccc(-c4cncc(OCC)c4)cc3)CC2)cc1` (stereo not drawn) [Compound B1M098-01], the “ASMS ratio (%) n = 1” value [1] is reported as 0.9% and the “ASMS ratio (%) n = 2” value [1] is reported as 0.3%.

With `CCOc1cccc(-c2ccc(CN3CCN(c4ccc(C(=O)Nc5ccc(OC)cc5)nn4)CC3)c3ccccc23)c1` [Compound B1O091-01, 6-[4-[[4-(3-Ethoxyphenyl)naphthalen-1-yl]methyl]piperazin-1-yl]-N-(4-methoxyphenyl)pyridazine-3-carboxamide] the “ASMS ratio (%) n = 2” value [1] was −2.2%.

In the case of `CCOc1cccc(-c2cc(CN3CCN(c4ccc(C(=O)NS(=O)(=O)CC56CC7CC(CC(C7)C5)C6)nn4)CC3)cc(OC(F)(F)F)c2)c1` [Compound B2A089-01], the “ASMS ratio (%) n = 1” value [2] is reported as 10.5% and the “ASMS ratio (%) n = 2” value [2] is reported as 0.5%.

With `CCOc1cccc(-c2cc(C(=O)N3CCN(c4ccc(C(=O)NS(C)(=O)=O)cc4)CC3)cc(C(F)(F)F)c2)c1` [Compound B2I039-01, 4-[4-[3-(3-Ethoxyphenyl)-5-(trifluoromethyl)benzoyl]piperazin-1-yl]-N-methylsulfonylbenzamide] the “ASMS ratio (%) n = 1” value [2] was 0.0% and the “ASMS ratio (%) n = 2” value [2] was 0.0%.

For `CCOc1cncc(-c2cc(C(=O)N3CCN(c4ccc(C(=O)NS(C)(=O)=O)cc4)CC3)cc(C(F)(F)F)c2)c1` [Compound B2I040-01, 4-[4-[3-(5-Ethoxypyridin-3-yl)-5-(trifluoromethyl)benzoyl]piperazin-1-yl]-N-methylsulfonylbenzamide], the “ASMS ratio (%) n = 1” value [2] was 0.0% and the “ASMS ratio (%) n = 2” value [2] was −2.7%.

With `CCOc1cccc(C#Cc2cc(C(=O)N3CCN(c4ccc(C(=O)NS(C)(=O)=O)cc4)CC3)cc(C(F)(F)F)c2)c1` [Compound B2I041-01, 4-[4-[3-[2-(3-Ethoxyphenyl)ethynyl]-5-(trifluoromethyl)benzoyl]piperazin-1-yl]-N-methylsulfonylbenzamide] the “ASMS ratio (%) n = 1” value [2] was 0.0% and the “ASMS ratio (%) n = 2” value [2] was 0.0%.

`CCOc1cncc(C#Cc2cc(C(=O)N3CCN(c4ccc(C(=O)NS(C)(=O)=O)cc4)CC3)cc(C(F)(F)F)c2)c1` [Compound B2I042-01, 4-[4-[3-[2-(5-Ethoxypyridin-3-yl)ethynyl]-5-(trifluoromethyl)benzoyl]piperazin-1-yl]-N-methylsulfonylbenzamide] was tested, and the “ASMS ratio (%) n = 1” value [2] was 0.0% and the “ASMS ratio (%) n = 2” value [2] was 0.0%.

`CCOc1cccc(-c2cnn(-c3cc(C(=O)N4CCN(c5ccc(C(=O)NS(C)(=O)=O)cc5)CC4)cc(C(F)(F)F)c3)c2)c1` [Compound B2I043-01, 4-[4-[3-[4-(3-Ethoxyphenyl)pyrazol-1-yl]-5-(trifluoromethyl)benzoyl]piperazin-1-yl]-N-methylsulfonylbenzamide] was tested, and the “ASMS ratio (%) n = 1” value [2] was 0.0% and the “ASMS ratio (%) n = 2” value [2] was 0.0%.

`CCOc1cncc(-c2cnn(-c3cc(C(=O)N4CCN(c5ccc(C(=O)NS(C)(=O)=O)cc5)CC4)cc(C(F)(F)F)c3)c2)c1` [Compound B2I044-01, 4-[4-[3-[4-(5-Ethoxypyridin-3-yl)pyrazol-1-yl]-5-(trifluoromethyl)benzoyl]piperazin-1-yl]-N-methylsulfonylbenzamide] was tested, and the “ASMS ratio (%) n = 1” value [2] was 0.0% and the “ASMS ratio (%) n = 2” value [2] was 0.0%.

For `CCOc1cccc(-c2ccccc2CN2CCN(c3ccc(C(=O)NS(C)(=O)=O)cc3)CC2)c1` [Compound B2I045-01, 4-[4-[[2-(3-Ethoxyphenyl)phenyl]methyl]piperazin-1-yl]-N-methylsulfonylbenzamide], the “ASMS ratio (%) n = 1” value [2] was −0.3% and the “ASMS ratio (%) n = 2” value [2] was 0.2%.

In the case of `CCOc1cncc(-c2ccccc2CN2CCN(c3ccc(C(=O)NS(C)(=O)=O)cc3)CC2)c1` [Compound B2I046-01, 4-[4-[[2-(5-Ethoxypyridin-3-yl)phenyl]methyl]piperazin-1-yl]-N-methylsulfonylbenzamide], the “ASMS ratio (%) n = 1” value [2] is reported as −0.6% and the “ASMS ratio (%) n = 2” value [2] is reported as 1.5%.

For `CCOc1cccc(-c2ccc(CN3CCN(c4ccc(C(=O)NS(C)(=O)=O)cc4)CC3)cc2C)c1` [Compound B2I047-01, 4-[4-[[4-(3-Ethoxyphenyl)-3-methylphenyl]methyl]piperazin-1-yl]-N-methylsulfonylbenzamide], the “ASMS ratio (%) n = 1” value [2] was 0.8% and the “ASMS ratio (%) n = 2” value [2] was 1.4%.

In the case of `CCOc1cncc(-c2ccc(CN3CCN(c4ccc(C(=O)NS(C)(=O)=O)cc4)CC3)cc2C)c1` [Compound B2I048-01, 4-[4-[[4-(5-Ethoxypyridin-3-yl)-3-methylphenyl]methyl]piperazin-1-yl]-N-methylsulfonylbenzamide], the “ASMS ratio (%) n = 1” value [2] is reported as 0.0% and the “ASMS ratio (%) n = 2” value [2] is reported as 0.0%.

— patent publication US20250154686A1, “COMPOUND LIBRARY” (CHUGAI SEIYAKU KABUSHIKI KAISHA, priority 2021, published 2025)
